This is an account of results in patent publication US9187507B2 (Institute of Pharmacology and Toxicology Academy of …, priority 2009, dated 2015).

The conditions of series [1]: human body, after MCC-478; cited from earlier work.
The nature of series [2]: Cytotoxicity by MTT method. The series is classed as cell-based. Particulars: human; Hep G2 cells; MTT on the 3rd day of adding drugs; absorption at 540 nm. The method, then: The cytotoxicity of the desired compounds were measured by MTT method: Hep G2 cells were cultured in a DMEM culture medium containing 10% bovine calf serum, incubated in a 5% CO2 incubator, then the cells were inoculated in 96-well plate, cell count 5×10^4, continuously cultured for 3 days, added with new culture media with different drug concentrations, in which 3 parallel wells were set; on the 3rd day of adding drugs, MTT was added to 7.5 mg/ml, the culture was kept for further 2 h, the supernatant was discarded, isopropanol containing 10% […] was added, 120 μl/well, then added 0.4 μl/well again, enzyme-linked meter was used to measure the absorption at 540 nm, calculate 50% inhibition concentration, i.e., CC50 value.

The subject of series [3] is HBV DNA. Description: Test of in vitro activity against HBV: inhibition of HBV DNA in Hep G 2.2.15 cells by quantitative real-time fluorescent PCR. Type of series: cell-based. Particulars: Hepatitis B virus, HepG2.2.15. The method, then: By an in vitro test method of using Hep G 2.2.15 cells, the inhibition effects and cytotoxicity of the desired compounds to HBV DNA were measured.
By using quantitative and real-time fluorescent PCR method, the inhibition effects of the desired compounds to HBV DNA were measured: Hep G 2.2.15 cells were cultured in a DMEM culture medium containing 10% bovine calf serum, incubated in a 5% CO2 incubator, then the cells were inoculated in 96-well plate, cell count 3×10^4, continuously cultured, when the cell density reached about 80%, the used culture medium was discarded, and new culture media with different drug concentrations were added, in which 3 parallel wells were set; the culture media were exchanged every three days. On the 10th day of using drug, 100 μl of supernatant was taken and measured to determine HBV DNA content by quantitative PCR method, calculate 50% inhibition concentration, i.e., IC50 value.

The test system of series [4] is HBV. Particulars: anti-HBV, cited from earlier work.
In series [5] the test system is other retro viruses such as HIV and HSV. The following applies: cited from earlier work.
The subject of series [6] is HBV strains with resistance to lamivudine. Particulars: cited from earlier work.
In series [7] the test system is hepatitis B virus. The following applies: clinical; cited from earlier work.

Where two headings read alike, the source gives them in different places. Where only a bound is given, the exact number is not on record here.

As to `COc1ccc(Sc2nc(N)nc3c2ncn3CCOCP(=O)(O)O)cc1` [Compound 602076, 2-amino-6-(4-methoxyphenylthio)-9-(2-phosphonomethoxyethyl)-purine], the “concentration of the free acid 602076 in blood relative to that of the monoester 602074” value in series [1] was 1/10.
As a reminder, the CC50 is the concentration that lowers cell viability or growth by half. Usually IC50 stands for the concentration that gives 50% inhibition. As to `COc1ccc(Sc2nc(N)nc3c2ncn3CCOCP(=O)(OCOC(=O)C(C)C)OCOC(=O)C(C)C)cc1` [Compound I2], the CC50 at 3 days in series [2] was above 1000 µM. For the same molecule, the IC50 in series [3] stood at 0.02 µM.
As for `COc1ccc(Sc2nc(N)nc3c2ncn3CCOCP(=O)(OCOC(=O)C(C)(C)C)OCOC(=O)C(C)(C)C)cc1` [Compound I3], the CC50 at 3 days in series [2] is above 1000 µM. In addition, the IC50 in series [3] was found to be 0.015 µM.
For `COc1ccc(Sc2nc(N)nc3c2ncn3CCOCP(=O)(OCOC(=O)C2CCCCC2)OCOC(=O)C2CCCCC2)cc1` [Compound I4], in that order: above 1000 µM and 0.012 µM.
Taken in the same sequence, the figures for `COc1ccc(Sc2nc(N)nc3c2ncn3C[C@@H](C)OCP(=O)(OCOC(=O)C(C)(C)C)OCOC(=O)C(C)(C)C)cc1` [Compound I5] were above 1000 µM and 0.006 µM.
For the molecule `COc1ccc(Sc2nc(N)nc3c2ncn3CCOCP(=O)(OCOC(=O)OC(C)C)OCOC(=O)OC(C)C)cc1` [Compound I8], the CC50 at 3 days in series [2] is above 1000 µM. Besides, in series [3], it took 0.005 µM to reach half-maximal inhibition (IC50).
Taken in the same sequence, the figures for `COc1ccc(Sc2nc(N)nc3c2ncn3CCOCP(=O)(OCOC(=O)OCC(C)C)OCOC(=O)OCC(C)C)cc1` [Compound I9] were above 1000 µM and 0.021 µM.
With `COc1ccc(Sc2nc(N)nc3c2ncn3CCOCP(=O)(OCOC(=O)OC2CCCCC2)OCOC(=O)OC2CCCCC2)cc1` [Compound I12], the CC50 at 3 days in series [2] is above 1000 µM. The IC50 in series [3] came out at 0.011 µM.
Taken in the same sequence, the figures for `COc1ccc(Sc2nc(N)nc3c2ncn3C[C@@H](C)OCP(=O)(OCOC(=O)OC(C)C)OCOC(=O)OC(C)C)cc1` [Compound I13] were above 1000 µM and 0.054 µM.
`COc1ccc(Sc2nc(N)nc3c2ncn3CCOCP(=O)(OCC(F)(F)F)OCC(F)(F)F)cc1` [MCC-478] displayed a CC50 at 3 days in series [2] above 1000 µM. Moreover, the “in vitro activity, times that of adefovir” value in series [4] (relative to adefovir) was 10-20 times. For the same molecule, in series [4] (relative to lamivudine), the “in vitro activity, times that of lamivudine” value is 20-80 times. The 50% inhibitory concentration (IC50) in series [3] (Hep G 2.2.15 cells, HBV DNA content in supernatant by quantitative PCR on the 10th day of using drug, read-out: IC50) was 0.016 µM. For the same molecule, the “activity against other retro viruses such as HIV and HSV” value in series [5] was “no activity”. Besides, the “inhibition effects on HBV strains with resistance to lamivudine” value in series [6] is “has inhibition effects”.
In the case of interferon, the “effective rate of treatment” value in series [7] was 30-50%.
